Data on 14 compounds can be found in patent US6333338A, “Bispiperidines as antithrombotic agents” (Laboratoire L. Lafon, priority 1998, dated 2001).

The test system of test [1] is guinea pig platelets. As to the kind of experiment: In vitro inhibition of collagen-induced platelet aggregation, guinea pig platelets (PRP). In kind it is cell-based, guinea pig (male Dunkin-Hartley). The note with it: Cavia porcellus, Platelet, 0.05 h, collagen 1 μg/ml, 3 minutes of contact at 37° C. In a few lines:
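Citrated PRP from male Dunkin-Hartley guinea pigs, adjusted to 200,000–400,000 platelets/mm^3, with PPP as reference. Aggregation induced by collagen (1 μg/ml) and followed by optical aggregometry; inhibition measured after 3 min compound contact at 37° C with stirring.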

In another test the test system is human platelets. As to the kind of experiment: In vitro inhibition of collagen-induced platelet aggregation, human platelets (PRP). It is filed as cell-based. The note with it: 0.05 h, collagen 5 μg/ml, 3 minutes of contact at 37° C., read-out: IC50 (M) in vitro, Man. The protocol:
A study of the inhibitory activity of the compounds of formula I on platelet aggregation was carried out in vitro, i.e. by direct contact of solutions of variable concentrations of the compounds with platelets freshly separated from a sample of total blood, taken under standardized conditions, from laboratory animals (guinea pigs) and from healthy human subjects who have not received any substances or drugs that might interfere with blood clotting. The anti-platelet-aggregating activity was also studied ex vivo/vitro, i.e. after administration of the substances claimed to guinea pigs to measure the intensity and duration of the anti-aggregating action induced by the fraction of the test product absorbed and circulating in the blood.
Venous blood is taken from a group of ten healthy human subjects of the same age, by puncture into a vein of the fold of the elbow and is collected in a glass tube containing aqueous 0.129 M sodium citrate solution (1 volume of citrate solution per 9 volumes of blood). Each tube is then centrifuged a first time at 20° C. and 100 g for 15 minutes in order to obtain the platelet-rich plasma (PRP); after removing this PRP, the tube is again centrifuged at 2000 g for 15 minutes in order this time to remove the platelet-poor plasma (PPP).
For each identified sample of PRP, the platelets are counted using a Coulter ZM counter. Each sample is then used to study the variation in inhibition of the platelet aggregation triggered by the addition of a Chromo-par Reagent collagen glucose solution from Coultronics (used at a concentration of 5 μg/ml) as a function of the addition of increasing concentrations of each compound in a range covering the interval 10^-8 M→10^-5 M, (example of concentrations: 10^-8 M, […], 6×10^-6 M, 4×10^-6 M, 2×10^-6 M, 10^-6 M, […], 10^-5 M). Beforehand, for each compound, an aqueous 10^-3 M solution is prepared. A control test intended to check the possible effect of the solvents (reference value) on the platelet aggregation is introduced into each measurement series, and is measured after 3 minutes of contact at 37° C. with agitation.
From the percentages of inhibition of the platelet aggregation measured for each concentration of each compound, the 50% inhibitory concentration (IC50) is calculated.

In test [2] the test system is guinea pig platelets. As to the kind of experiment: Ex vivo/vitro inhibition of platelet aggregation after administration via the gastric route in guinea pigs. The note with it: Cavia porcellus, Platelet, fasted guinea pigs. Also on record: species or system guinea pig (Dunkin-Hartley). In a few lines:
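Freshly separated platelets from Dunkin-Hartley guinea pigs given test compounds by the gastric route (random allocation) were tested ex vivo under the in vitro assay conditions. Aggregation inhibition at each concentration gave an IC50 plus kinetics and duration of effect.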

Setting [3] is: 1 h before blood sampling, read-out: % of g.r. inhibition guinea pig ex vivo, d = 10 mg/kg, 1 h.
The mark [4] stands for this setting: 2 h before blood sampling, read-out: % of g.r. inhibition guinea pig ex vivo, d = 10 mg/kg, 2 h.
[5] abbreviates: 1 h before blood sampling, read-out: % of g.r. inhibition guinea pig ex vivo, d = 150 mg/kg, 1 h.
Setting [6] is: 2 h before blood sampling, read-out: % of g.r. inhibition guinea pig ex vivo, d = 150 mg/kg, 2 h.

Counter-ions that a name gives are not always drawn. Like-named read-outs stand apart in the source and are kept apart here.

Usually IC50 stands for the midpoint of a concentration-inhibition curve. Regarding `O=C(CNC(=O)C(CCC1CCNCC1)CCC1CCNCC1)NCC(NS(=O)(=O)c1ccc(-c2ccccc2)s1)C(=O)O` (centres unmarked) [Example 71, 2-{[(5-Phenyl-2-thienyl))sulphonyl]amino}-3-{[2-({4-(4-piperidyl)-2-[2-(4-piperidyl)ethyl]butanoyl}amino)acetyl]amino}propanoic Acid Dihydrochloride], the IC50 was found to be 63 nM with guinea pig platelets [1] and 1.9e-07 M in the test on human platelets. The inhibition at 10 mg/kg in the test on guinea pig platelets [2] (setting [3]) is -72%; in the test on guinea pig platelets [2] (setting [4]) it was -70%.

Take `O=C(O)CC(CCc1ccccc1)NC(=O)CNC(=O)C(CCC1CCNCC1)CCC1CCNCC1` (centres unmarked) [Example 15, 5-Phenyl-3-{[2-({4-(4-piperidyl)-2-[2-(4-piperidyl)ethyl]butanoyl}amino)acetyl]amino}pentanoic Acid Dihydrochloride]: the results for the IC50 in the test on guinea pig platelets [1] and with human platelets were 4300 nM and 1.5e-07 M, respectively. Further, the results for the inhibition at 150 mg/kg in the test on guinea pig platelets [2] (setting [5]) and with guinea pig platelets [2] (setting [6]) were -84% and -26%, respectively.

`O=C(CNC(=O)C(CCC1CCNCC1)CCC1CCNCC1)NCC(NS(=O)(=O)c1cccc2ccccc12)C(=O)O` (centres unmarked) [Example 31, 2-[(1-Naphthylsulphonyl)amino]-3-{[2-({4-(4-piperidyl)-2-[2-(4-piperidyl)ethyl]butanoyl}amino)acetyl]amino}propanoic Acid Dihydrochloride]: the IC50 in the test with guinea pig platelets [1] came to 44 nM; with human platelets, 5.8e-07 M. For the same compound, the inhibition at 10 mg/kg with guinea pig platelets [2] (setting [3]) and in the test with guinea pig platelets [2] (setting [4]) was -81% in each case.

`O=C(CNC(=O)C(CCC1CCNCC1)CCC1CCNCC1)NCC(NS(=O)(=O)c1ccc(-c2ccccc2)cc1)C(=O)O` (centres unmarked) [Example 30, 2-[([1,1-Biphenyl]-4-ylsulphonyl)amino]-3-{[2-({4-(4-piperidyl)-2-[2-(4-piperidyl)ethyl]butanoyl}amino)acetyl]amino}propanoic Acid Dihydrochloride]: the values for the IC50 in the test on guinea pig platelets [1] and in the test with human platelets were 120 nM and 1.4e-07 M, respectively. For the same compound, the inhibition at 10 mg/kg with guinea pig platelets [2] (setting [3]) is -67%. In addition, the inhibition at 150 mg/kg in the test on guinea pig platelets [2] (setting [6]) was -72%.

`Cc1cc(C)c(S(=O)(=O)NC(CNC(=O)CNC(=O)C(CCC2CCNCC2)CCC2CCNCC2)C(=O)O)c(C)c1` (centres unmarked) [Example 37, 2-[(Mesitylsulphonyl)amino]-3-{[2-({4-(4-piperidyl)-2-[2-(4-piperidyl)ethyl]butanoyl}amino)acetyl]amino}propanoic Acid Dihydrochloride]: the IC50 in the test on guinea pig platelets [1] was found to be 140 nM; in the test on human platelets it was 1.3e-07 M. For the same compound, the inhibition at 10 mg/kg in the test with guinea pig platelets [2] (setting [3]) is -9%; in the test on guinea pig platelets [2] (setting [4]), -16%.

As to `CC(C)c1ccc(C(CC(=O)O)NC(=O)CNC(=O)C(CCC2CCNCC2)CCC2CCNCC2)cc1` (centres unmarked) [Example 6, 3-(4-Isopropylphenyl)-3-{[2-({4-(4-piperidyl)-2-[2-(4-piperidyl)ethyl]butanoyl}amino)acetyl]amino}propanoic Acid Dihydrochloride], the figures for the IC50 with guinea pig platelets [1] and with human platelets were 14000 nM and 2.7e-06 M, respectively. The inhibition at 150 mg/kg is -9% with guinea pig platelets [2] (setting [5]) and -4% with guinea pig platelets [2] (setting [6]).

In the case of `O=C(O)C[C@H](NC(=O)CNC(=O)C(CCC1CCNCC1)CCC1CCNCC1)C(=O)NC12CC3CC(CC(C3)C1)C2` [Example 16, (3S)-4-(1-Adamantylamino)-4-oxo-3-{[2-({4-(4-piperidyl)-2-[2-(4-piperidyl)ethyl]butanoyl}amino)acetyl]amino}butanoic Acid Dihydrochloride], the IC50 in the test with guinea pig platelets [1] came out at 3500 nM; with human platelets, 8.5e-07 M. For the same compound, the inhibition at 10 mg/kg in the test on guinea pig platelets [2] (setting [3]) is -5%. For the same compound, the inhibition at 150 mg/kg in the test on guinea pig platelets [2] (setting [5]) is -54%; with guinea pig platelets [2] (setting [6]), -47%.

Turning to `O=C(CCNC(=O)C(CCC1CCNCC1)CCC1CCNCC1)NCC(NS(=O)(=O)c1ccc2ccccc2c1)C(=O)O` (centres unmarked) [Example 78, 2-[(2-Naphthylsulphonyl)amino]-3-{[3-({4-(4-piperidyl)-2-[2-(4-piperidyl)ethyl]butanoyl}amino)propanoyl]amino}propanoic Acid Dihydrochloride], the IC50 was 46 nM in the test on guinea pig platelets [1] and 1e-07 M in the test on human platelets. Also, the inhibition at 10 mg/kg in the test with guinea pig platelets [2] (setting [3]) was -65%; with guinea pig platelets [2] (setting [4]), -73%.

With `O=C(CNC(=O)C(CCC1CCNCC1)CCC1CCNCC1)NCC(NS(=O)(=O)c1cccs1)C(=O)O` (centres unmarked) [Example 33, 2-[(2-Thienylsulphonyl)amino]-3-{[2-({4-(4-piperidyl)-2-[2-(4-piperidyl)ethyl]butanoyl}amino)acetyl]amino}propanoic Acid Dihydrochloride], the figures for the concentration for half-maximal inhibition (IC50) with guinea pig platelets [1] and with human platelets were 710 nM and 4.9e-07 M, respectively. The inhibition at 10 mg/kg with guinea pig platelets [2] (setting [3]) was -14%; with guinea pig platelets [2] (setting [4]), -5%.

On to `O=C(CNC(=O)C(CCC1CCNCC1)CCC1CCNCC1)NCC(NS(=O)(=O)c1ccc(F)cc1)C(=O)O` (centres unmarked) [Example 35, 2-{[(4-Fluorophenyl)sulphonyl]amino}-3-{[2-({4-(4-piperidyl)-2-[2-(4-piperidyl)ethyl]butanoyl}amino)acetyl]amino}propanoic Acid Dihydrochloride], for which the IC50 stood at 18 nM in the test on guinea pig platelets [1] and 1.3e-08 M in the test with human platelets. Further, the inhibition at 10 mg/kg was -5% in the test with guinea pig platelets [2] (setting [3]) and 0% in the test with guinea pig platelets [2] (setting [4]).

For the compound `O=C(O)C[C@H](NC(=O)CNC(=O)C(CCC1CCNCC1)CCC1CCNCC1)C(=O)NCCc1cccc2[nH]ccc12` [Example 17, (3S)-4-{[2-(1H-Indol-4-yl)ethyl]amino}-4-oxo-3-{[2-({4-(4-piperidyl)-2-[2-(4-piperidyl)ethyl]butanoyl}amino)acetyl]amino}butanoic Acid Dihydrochloride], the half-inhibitory concentration (IC50) was 7400 nM in the test with guinea pig platelets [1] and 6e-06 M in the test on human platelets. Besides, the inhibition at 150 mg/kg in the test on guinea pig platelets [2] (setting [5]) is -19%.

As to `O=C(CNC(=O)C(CCC1CCNCC1)CCC1CCNCC1)NC[C@H](NS(=O)(=O)c1cc2ccccc2s1)C(=O)O` [Example 59, 2-[(1-Benzothiophen-2-ylsulphonyl)amino]-3-{[2-({4-(4-piperidyl)-2-[2-(4-piperidyl)ethyl]butanoyl}amino)acetyl]amino}propanoic Acid Dihydrochloride], the IC50 in the test with guinea pig platelets [1] was found to be 66 nM; in the test with human platelets it was 1.5e-07 M. For the same compound, the inhibition at 10 mg/kg in the test with guinea pig platelets [2] (setting [3]) was -66%; with guinea pig platelets [2] (setting [4]), -34%.

Consider `O=C(CNC(=O)C(CCC1CCNCC1)CCC1CCNCC1)NCC(NS(=O)(=O)c1ccc(Cl)c2ccccc12)C(=O)O` (centres unmarked) [Example 63, 2-{[(4-Chloro-1-naphthyl)sulphonyl]amino}-3-{[2-({4-(4-piperidyl)-2-[2-(4-piperidyl)ethyl]butanoyl}amino)acetyl]amino}propanoic Acid Dihydrochloride], for which the IC50 with guinea pig platelets [1] turned out to be 53 nM; in the test with human platelets it was 1e-06 M. The inhibition at 10 mg/kg is -69% with guinea pig platelets [2] (setting [3]) and -50% with guinea pig platelets [2] (setting [4]).

Turning to `COc1cccc(C(CC(=O)O)NC(=O)CNC(=O)C(CCC2CCNCC2)CCC2CCNCC2)c1` (centres unmarked) [Example 10, 3-(3-Methoxyphenyl)-3-{[2-({4-(4-piperidyl)-2-[2-(4-piperidyl)ethyl]butanoyl}amino)acetyl]amino}propanoic Acid Dihydrochloride], the IC50 was found to be 13000 nM in the test on guinea pig platelets [1] and 9.2e-07 M in the test with human platelets. Besides, the inhibition at 150 mg/kg with guinea pig platelets [2] (setting [5]) was -14%; in the test on guinea pig platelets [2] (setting [6]), -18%.
